Converted amounts (≈) assume the structure as drawn.
Columns and labels:
Pseudomonas aeruginosa [1] = assay: Antibacterial activity against Carbapenem- sensitive Pseudomonas aeruginosa 17-7 assessed as reduction in bacterial growth; type: functional
Escherichia coli [2] = assay: Antibacterial activity against ESBLs positive Carbapenem-sensitive Escherichia coli 17-5 assessed as reduction in bacterial growth; type: functional
Pseudomonas aeruginosa [3] = assay: Bactericidal activity against carbapenem-sensitive Pseudomonas aeruginosa 17-29 assessed as reduction in bacterial growth; type: functional
Klebsiella aerogenes [4] = assay: Antibacterial activity against Enterobacter aerogenes 17-4 assessed as reduction in bacterial growth; type: functional
Escherichia coli [5] = assay: Antibacterial activity against ESBLs negative Carbapenem-sensitive Escherichia coli 17-9 assessed as reduction in bacterial growth; type: functional
Klebsiella pneumoniae [6] = assay: Bactericidal activity against ESBLs positive Carbapenem-sensitive Klebsiella pneumoniae 17-2 assessed as reduction in bacterial growth in the presence of avibactam; type: functional
Klebsiella pneumoniae [7] = assay: Antibacterial activity against Carbapenem- resistant Klebsiella pneumoniae KR 15-4 assessed as reduction in bacterial growth; type: functional
Escherichia coli [8] = assay: Bactericidal activity against ESBLs positive carbapenem-sensitive Escherichia coli 17-18 assessed as reduction in bacterial growth in the presence of avibactam; type: functional
Pseudomonas aeruginosa [9] = assay: Antibacterial activity against Carbapenem- resistant Pseudomonas aeruginosa 17-1 assessed as reduction in bacterial growth in the presence of Avibactam; type: functional
Acinetobacter baumannii [10] = assay: Antibacterial activity against Carbapenem- resistant Acinetobacter baumannii 17-6 assessed as reduction in bacterial growth; type: functional
Pseudomonas aeruginosa [11] = assay: Antibacterial activity against Carbapenem- sensitive Pseudomonas aeruginosa 17-10 assessed as reduction in bacterial growth; type: functional
Klebsiella pneumoniae [12] = assay: Antibacterial activity against Carbapenem- resistant Klebsiella pneumoniae KR 15-8 assessed as reduction in bacterial growth; type: functional
Escherichia coli [13] = assay: Antibacterial activity against ESBLs positive Carbapenem-sensitive Escherichia coli 17-22 assessed as reduction in bacterial growth; type: functional
Klebsiella aerogenes [14] = assay: Antibacterial activity against Enterobacter aerogenes 17-1 assessed as reduction in bacterial growth; type: functional
Klebsiella aerogenes [15] = assay: Antibacterial activity against Enterobacter aerogenes 17-3 assessed as reduction in bacterial growth; type: functional
Pseudomonas aeruginosa [16] = assay: Antibacterial activity against Carbapenem- sensitive Pseudomonas aeruginosa 17-29 assessed as reduction in bacterial growth; type: functional
Pseudomonas aeruginosa [17] = assay: Antibacterial activity against Carbapenem- sensitive Pseudomonas aeruginosa 17-24 assessed as reduction in bacterial growth; type: functional
Acinetobacter baumannii [18] = assay: Antibacterial activity against Multidrug resistant Acinetobacter baumannii AR 15-4 assessed as reduction in bacterial growth in the presence of Avibactam; type: functional
Klebsiella pneumoniae [19] = assay: Antibacterial activity against Carbapenem- sensitive Klebsiella pneumoniae 17-6 overexpressing extended spectrum beta-lactamases assessed as reduction in bacterial growth; type: functional
Escherichia coli [20] = assay: Antibacterial activity against Escherichia coli NCTC 13353 assessed as reduction in bacterial growth; type: functional
Klebsiella pneumoniae [21] = assay: Antibacterial activity against Carbapenem- sensitive Klebsiella pneumoniae 17-14 overexpressing extended spectrum beta-lactamases assessed as reduction in bacterial growth; type: functional
Escherichia coli [22] = assay: Antibacterial activity against ESBLs positive Carbapenem-sensitive Escherichia coli 17-15 assessed as reduction in bacterial growth; type: functional
Enterobacter cloacae [23] = assay: Antibacterial activity against Enterobacter cloacae 17-1 assessed as reduction in bacterial growth; type: functional
Pseudomonas aeruginosa [24] = assay: Antibacterial activity against Carbapenem- sensitive Pseudomonas aeruginosa 17-26 assessed as reduction in bacterial growth; type: functional
Enterobacter cloacae [25] = assay: Antibacterial activity against Enterobacter cloacae 17-7 assessed as reduction in bacterial growth; type: functional
Escherichia coli [26] = assay: Antibacterial activity against ESBLs positive Carbapenem-sensitive Escherichia coli 17-18 assessed as reduction in bacterial growth; type: functional
Klebsiella pneumoniae [27] = assay: Antibacterial activity against Carbapenem- sensitive Klebsiella pneumoniae 17-5 overexpressing extended spectrum beta-lactamases assessed as reduction in bacterial growth; type: functional
Escherichia coli [28] = assay: Antibacterial activity against ESBLs positive Carbapenem-sensitive Escherichia coli 17-12 assessed as reduction in bacterial growth; type: functional
Klebsiella pneumoniae [29] = assay: Antibacterial activity against Carbapenem- resistant Klebsiella pneumoniae KR 15-7 assessed as reduction in bacterial growth; type: functional
Escherichia coli [30] = assay: Antibacterial activity against ESBLs negative Carbapenem-sensitive Escherichia coli 17-4 assessed as reduction in bacterial growth; type: functional
Klebsiella aerogenes [31] = assay: Antibacterial activity against Enterobacter aerogenes 15-3 assessed as reduction in bacterial growth in the presence of Avibactam; type: functional
Pseudomonas aeruginosa [32] = assay: Antibacterial activity against Carbapenem- sensitive Pseudomonas aeruginosa 17-21 assessed as reduction in bacterial growth; type: functional
Acinetobacter baumannii [33] = assay: Antibacterial activity against Carbapenem- resistant Acinetobacter baumannii 17-10 assessed as reduction in bacterial growth in the presence of Avibactam; type: functional
Acinetobacter baumannii [34] = assay: Antibacterial activity against Carbapenem- resistant Acinetobacter baumannii 17-11 assessed as reduction in bacterial growth; type: functional
Pseudomonas aeruginosa [35] = assay: Antibacterial activity against Pseudomonas aeruginosa ATCC 27853 assessed as reduction in bacterial growth; type: functional
Pseudomonas aeruginosa [36] = assay: Bactericidal activity against carbapenem-sensitive Pseudomonas aeruginosa 17-26 assessed as reduction in bacterial growth; type: functional
Klebsiella pneumoniae [37] = assay: Antibacterial activity against ESBLs negative Carbapenem-sensitive Klebsiella pneumonia 15-2 assessed as reduction in bacterial growth; type: functional
Acinetobacter baumannii [38] = assay: Antibacterial activity against Multidrug resistant Acinetobacter baumannii AR 15-2 assessed as reduction in bacterial growth; type: functional
Klebsiella pneumoniae [39] = assay: Antibacterial activity against Carbapenem- sensitive Klebsiella pneumoniae 17-15 overexpressing extended spectrum beta-lactamases assessed as reduction in bacterial growth; type: functional
Enterobacter cloacae [40] = assay: Antibacterial activity against Enterobacter cloacae 17-3 assessed as reduction in bacterial growth; type: functional
Escherichia coli [41] = assay: Antibacterial activity against ESBLs negative Carbapenem-sensitive Escherichia coli 17-1 assessed as reduction in bacterial growth; type: functional
Enterobacter cloacae [42] = assay: Antibacterial activity against Enterobacter cloacae 17-2 assessed as reduction in bacterial growth in the presence of Avibactam; type: functional
Escherichia coli [43] = assay: Antibacterial activity against ESBLs negative Carbapenem-sensitive Escherichia coli 17-1 assessed as reduction in bacterial growth in the presence of Avibactam; type: functional
Klebsiella pneumoniae [44] = assay: Antibacterial activity against Multidrug resistant Klebsiella pneumoniae KR 15-3 assessed as reduction in bacterial growth; type: functional
Acinetobacter baumannii [45] = assay: Antibacterial activity against Carbapenem- resistant Acinetobacter baumannii 17-12 assessed as reduction in bacterial growth; type: functional
Enterobacter cloacae [46] = assay: Antibacterial activity against Enterobacter cloacae 17-5 assessed as reduction in bacterial growth; type: functional
Klebsiella pneumoniae [47] = assay: Antibacterial activity against Klebsiella pneumoniae ATCC BAA-1705 assessed as reduction in bacterial growth; type: functional
Klebsiella pneumoniae [48] = assay: Antibacterial activity against Carbapenem- sensitive Klebsiella pneumoniae 17-10 overexpressing extended spectrum beta-lactamases assessed as reduction in bacterial growth; type: functional
Klebsiella pneumoniae [49] = assay: Antibacterial activity against ESBLs negative Carbapenem-sensitive Klebsiella pneumoniae 17-17 assessed as reduction in bacterial growth; type: functional
Klebsiella pneumoniae [50] = assay: Antibacterial activity against Carbapenem- sensitive Klebsiella pneumoniae 17-9 overexpressing extended spectrum beta-lactamases assessed as reduction in bacterial growth; type: functional
Acinetobacter baumannii [51] = assay: Antibacterial activity against Acinetobacter baumannii NCTC 13304 assessed as reduction in bacterial growth in the presence of Avibactam; type: functional
Acinetobacter baumannii [52] = assay: Antibacterial activity against Carbapenem- resistant Acinetobacter baumannii 17-5 assessed as reduction in bacterial growth

Compound `Nc1nc(/C(=N/OCc2cc(=O)c(O)cn2O)C(=O)N[C@@H]2C(=O)N3C(C(=O)O)=CCS[C@H]23)cs1` has an MIC (Pseudomonas aeruginosa [1]) of 0.25 µg/mL (≈ 0.492 µM), an MIC (Escherichia coli [2]) of 64 µg/mL (≈ 126 µM) and an MBC (Pseudomonas aeruginosa [3]) of 8 µg/mL (≈ 15.7 µM). For the same compound, the MIC (Klebsiella aerogenes [4]) was 8 µg/mL (≈ 15.7 µM), the MIC (Escherichia coli [5]) was 0.5 µg/mL (≈ 0.983 µM) and the MBC (Klebsiella pneumoniae [6]) was 0.125 µg/mL. The MIC (Klebsiella pneumoniae [7]) was greater than 64 µg/mL, the MBC (Escherichia coli [8]) was 1 µg/mL and the MIC (Pseudomonas aeruginosa [9]) was 16 µg/mL. For the same compound, the MIC (Acinetobacter baumannii [10]) was greater than 64 µg/mL, the MIC (Pseudomonas aeruginosa [11]) was 2 µg/mL (≈ 3.93 µM) and the MIC (Klebsiella pneumoniae [12]) was greater than 64 µg/mL. For the same compound, the MIC (Escherichia coli [13]) was greater than 64 µg/mL, the MIC (Klebsiella aerogenes [14]) was 32 µg/mL (≈ 62.9 µM) and the MIC (Klebsiella aerogenes [15]) was 2 µg/mL (≈ 3.93 µM). The MIC (Pseudomonas aeruginosa [16]) was 2 µg/mL (≈ 3.93 µM), the MIC (Pseudomonas aeruginosa [17]) was 4 µg/mL (≈ 7.87 µM) and the MIC (Acinetobacter baumannii [18]) was 8 µg/mL. For the same compound, the MIC (Klebsiella pneumoniae [19]) was 0.25 µg/mL (≈ 0.492 µM), the MIC (Escherichia coli [20]) was greater than 64 µg/mL and the MIC (Klebsiella pneumoniae [21]) was 4 µg/mL (≈ 7.87 µM). For the same compound, the MIC (Escherichia coli [22]) was greater than 64 µg/mL, the MIC (Enterobacter cloacae [23]) was 1 µg/mL (≈ 1.97 µM) and the MIC (Pseudomonas aeruginosa [24]) was 2 µg/mL (≈ 3.93 µM). For the same compound, the MIC (Enterobacter cloacae [25]) was greater than 64 µg/mL, the MIC (Escherichia coli [26]) was 8 µg/mL (≈ 15.7 µM) and the MIC (Klebsiella pneumoniae [27]) was 8 µg/mL (≈ 15.7 µM). It also gave an MIC (Escherichia coli [28]) of 4 µg/mL (≈ 7.87 µM), an MIC (Klebsiella pneumoniae [29]) greater than 64 µg/mL and an MIC (Escherichia coli [30]) of 0.25 µg/mL (≈ 0.492 µM). For the same compound, the MIC (Klebsiella aerogenes [31]) was 16 µg/mL, the MIC (Pseudomonas aeruginosa [32]) was 4 µg/mL (≈ 7.87 µM) and the MIC (Acinetobacter baumannii [33]) was 16 µg/mL. For the same compound, the MIC (Acinetobacter baumannii [34]) was greater than 64 µg/mL, the MIC (Pseudomonas aeruginosa [35]) was 1 µg/mL (≈ 1.97 µM) and the MBC (Pseudomonas aeruginosa [36]) was greater than 16 µg/mL. The MIC (Klebsiella pneumoniae [37]) was 0.06 µg/mL (≈ 0.118 µM), the MIC (Acinetobacter baumannii [38]) was greater than 64 µg/mL and the MIC (Klebsiella pneumoniae [39]) was 64 µg/mL (≈ 126 µM). For the same compound, the MIC (Enterobacter cloacae [40]) was 64 µg/mL (≈ 126 µM), the MIC (Escherichia coli [41]) was 32 µg/mL (≈ 62.9 µM) and the MIC (Enterobacter cloacae [42]) was 1 µg/mL. The MIC (Escherichia coli [43]) was 0.25 µg/mL, the MIC (Klebsiella pneumoniae [44]) was greater than 64 µg/mL and the MIC (Acinetobacter baumannii [45]) was greater than 64 µg/mL. The MIC (Enterobacter cloacae [46]) was 32 µg/mL (≈ 62.9 µM), the MIC (Klebsiella pneumoniae [47]) was 64 µg/mL (≈ 126 µM) and the MIC (Klebsiella pneumoniae [48]) was greater than 64 µg/mL. For the same compound, the MIC (Klebsiella pneumoniae [49]) was 0.125 µg/mL (≈ 0.246 µM), the MIC (Klebsiella pneumoniae [50]) was 64 µg/mL (≈ 126 µM) and the MIC (Acinetobacter baumannii [51]) was 16 µg/mL. It also gave an MIC (Acinetobacter baumannii [52]) greater than 64 µg/mL.

— ChEMBL document CHEMBL4813981, “Synthesis and in vitro antibacterial activity of new aminothiazole-oximepiperidone cephalosporins” (2021)
